For the series, the target named is SMN2. The series is described as follows: mouse, dose not given. The note with it: ASO.

Several values for one entry are separate records, joined by “and”; a condition that tells them apart may be missing. Identical values can stand only once. HELM strings list units from the 5' end as sugar, base in round brackets, then linkage (d deoxyribose, r ribose, m 2'-O-methyl, p phosphodiester). Strings are as the collection lists them; they lack the last nucleoside at the 3' end of the tested compound. [moe] = 2'-O-(2-methoxyethyl) (MOE); [sp] = phosphorothioate linkage; [m5C] = 5-methylcytosine

“RNA1{[moe](T)p.[moe](T)[sp].[moe]([m5C])[sp].[moe](A)[sp].[moe]([m5C])[sp].[moe](T)[sp].[moe](T)[sp].[moe](T)[sp].[moe]([m5C])[sp].[moe](A)[sp].[moe](T)[sp].[moe](A)[sp].[moe](A)[sp].[moe](T)[sp].[moe](G)[sp].[moe]([m5C])[sp].[moe](T)[sp].[moe](G)[sp].[moe](G)}$$$$ (last 3' nucleoside missing)”: the 3 h FOB score worked out at 3.25 score 0-7.
“RNA1{[moe](A)[sp].[moe]([m5C])[sp].[moe](T)[sp].[moe](T)[sp].[moe](T)[sp].[moe]([m5C])[sp].[moe](A)[sp].[moe](T)[sp].[moe](A)p.[moe](A)p.[moe](T)p.[moe](G)p.[moe]([m5C])[sp].[moe](T)[sp].[moe](G)[sp].[moe](G)}$$$$ (last 3' nucleoside missing)” had a 3 h FOB score of 0 score 0-7.
“RNA1{[moe](A)[sp].[moe]([m5C])[sp].[moe](T)p.[moe](T)[sp].[moe](T)[sp].[moe]([m5C])[sp].[moe](A)p.[moe](T)[sp].[moe](A)[sp].[moe](A)[sp].[moe](T)p.[moe](G)[sp].[moe]([m5C])[sp].[moe](T)p.[moe](G)[sp].[moe](G)}$$$$ (last 3' nucleoside missing)”: the 3 h FOB score came to 0 score 0-7.
To “RNA1{[moe]([m5C])[sp].[moe](A)[sp].[moe]([m5C])[sp].[moe](T)[sp].[moe](T)[sp].[moe](T)[sp].[moe]([m5C])[sp].[moe](A)[sp].[moe](T)[sp].[moe](A)[sp].[moe](A)[sp].[moe](T)p.[moe](G)p.[moe]([m5C])[sp].[moe](T)[sp].[moe](G)[sp].[moe](G)}$$$$ (last 3' nucleoside missing)” belongs 0 score 0-7; to “RNA1{[moe]([m5C])[sp].[moe](A)p.[moe]([m5C])p.[moe](T)[sp].[moe](T)[sp].[moe](T)[sp].[moe]([m5C])[sp].[moe](A)[sp].[moe](T)[sp].[moe](A)[sp].[moe](A)[sp].[moe](T)[sp].[moe](G)[sp].[moe]([m5C])p.[moe](T)p.[moe](G)[sp].[moe](G)}$$$$ (last 3' nucleoside missing)”, 0 score 0-7; to “RNA1{[moe]([m5C])[sp].[moe](A)[sp].[moe]([m5C])[sp].[moe](T)[sp].[moe](T)[sp].[moe](T)[sp].[moe]([m5C])[sp].[moe](A)[sp].[moe](T)[sp].[moe](A)[sp].[moe](A)p.[moe](T)[sp].[moe](G)[sp].[moe]([m5C])[sp].[moe](T)p.[moe](G)[sp].[moe](G)}$$$$ (last 3' nucleoside missing)”, 0 score 0-7.
In the case of “RNA1{[moe](A)[sp].[moe](T)[sp].[moe](T)[sp].[moe]([m5C])[sp].[moe](A)[sp].[moe]([m5C])[sp].[moe](T)[sp].[moe](T)[sp].[moe](T)[sp].[moe]([m5C])[sp].[moe](A)[sp].[moe](T)[sp].[moe](A)[sp].[moe](A)[sp].[moe](T)p.[moe](G)[sp].[moe]([m5C])p.[moe](T)[sp].[moe](G)}$$$$ (last 3' nucleoside missing)”, the 3 h FOB score was found to be 2 score 0-7.
In the case of “RNA1{[moe](T)[sp].[moe]([m5C])[sp].[moe](A)[sp].[moe]([m5C])[sp].[moe](T)[sp].[moe](T)[sp].[moe](T)[sp].[moe]([m5C])[sp].[moe](A)[sp].[moe](T)[sp].[moe](A)[sp].[moe](A)p.[moe](T)[sp].[moe](G)p.[moe]([m5C])[sp].[moe](T)[sp].[moe](G)}$$$$ (last 3' nucleoside missing)” it was 2.5 score 0-7; in that of “RNA1{[moe](T)[sp].[moe]([m5C])p.[moe](A)[sp].[moe]([m5C])[sp].[moe](T)[sp].[moe](T)[sp].[moe](T)[sp].[moe]([m5C])[sp].[moe](A)p.[moe](T)[sp].[moe](A)[sp].[moe](A)[sp].[moe](T)[sp].[moe](G)[sp].[moe]([m5C])[sp].[moe](T)[sp].[moe](G)}$$$$ (last 3' nucleoside missing)”, 4 score 0-7.
To “RNA1{[moe](T)[sp].[moe]([m5C])[sp].[moe](A)[sp].[moe]([m5C])[sp].[moe](T)[sp].[moe](T)[sp].[moe](T)[sp].[moe]([m5C])[sp].[moe](A)[sp].[moe](T)[sp].[moe](A)[sp].[moe](A)[sp].[moe](T)[sp].[moe](G)[sp].[moe]([m5C])[sp].[moe](T)[sp].[moe](G)[sp].[moe](G)p.d(A)}$$$$ (last 3' nucleoside missing)” belongs 4 score 0-7 (2×) and 4.25 score 0-7 (2×) and 3.75 score 0-7 (2×); to “RNA1{[moe](A)[sp].[moe]([m5C])p.[moe](T)p.[moe](T)[sp].[moe](T)[sp].[moe]([m5C])[sp].[moe](A)[sp].[moe](T)[sp].[moe](A)[sp].[moe](A)[sp].[moe](T)[sp].[moe](G)[sp].[moe]([m5C])p.[moe](T)p.[moe](G)[sp].[moe](G)}$$$$ (last 3' nucleoside missing)”, 0 score 0-7.
In the case of “RNA1{[moe]([m5C])[sp].[moe](T)[sp].[moe](T)[sp].[moe](T)[sp].[moe]([m5C])[sp].[moe](A)p.[moe](T)p.[moe](A)p.[moe](A)p.[moe](T)p.[moe](G)p.[moe]([m5C])[sp].[moe](T)[sp].[moe](G)[sp].[moe](G)}$$$$ (last 3' nucleoside missing)” it was 0.75 score 0-7; in that of “RNA1{[moe]([m5C])p.[moe](T)[sp].[moe]([m5C])[sp].[moe](A)[sp].[moe]([m5C])[sp].[moe](T)[sp].[moe](T)[sp].[moe](T)[sp].[moe]([m5C])[sp].[moe](A)[sp].[moe](T)[sp].[moe](A)[sp].[moe](A)[sp].[moe](T)[sp].[moe](G)[sp].[moe]([m5C])[sp].[moe](T)[sp].[moe](G)}$$$$ (last 3' nucleoside missing)”, 3.5 score 0-7; in that of “RNA1{[moe](A)[sp].[moe]([m5C])[sp].[moe](T)p.[moe](T)[sp].[moe](T)[sp].[moe]([m5C])[sp].[moe](A)[sp].[moe](T)[sp].[moe](A)[sp].[moe](A)[sp].[moe](T)[sp].[moe](G)[sp].[moe]([m5C])[sp].[moe](T)p.[moe](G)[sp].[moe](G)}$$$$ (last 3' nucleoside missing)”, 0 score 0-7.
Turning to “RNA1{[moe](T)[sp].[moe](T)p.[moe]([m5C])[sp].[moe](A)[sp].[moe]([m5C])[sp].[moe](T)[sp].[moe](T)[sp].[moe](T)[sp].[moe]([m5C])[sp].[moe](A)[sp].[moe](T)[sp].[moe](A)[sp].[moe](A)[sp].[moe](T)[sp].[moe](G)[sp].[moe]([m5C])[sp].[moe](T)[sp].[moe](G)}$$$$ (last 3' nucleoside missing)”, the 3 h FOB score was determined as 3 score 0-7.
In the case of “RNA1{[moe](A)[sp].[moe](T)[sp].[moe](T)[sp].[moe]([m5C])[sp].[moe](A)[sp].[moe]([m5C])[sp].[moe](T)[sp].[moe](T)[sp].[moe](T)p.[moe]([m5C])p.[moe](A)[sp].[moe](T)[sp].[moe](A)[sp].[moe](A)[sp].[moe](T)[sp].[moe](G)[sp].[moe]([m5C])[sp].[moe](T)[sp].[moe](G)}$$$$ (last 3' nucleoside missing)” it was 4 score 0-7.
In the case of “RNA1{[moe]([m5C])[sp].[moe](A)[sp].[moe]([m5C])[sp].[moe](T)[sp].[moe](T)[sp].[moe](T)[sp].[moe]([m5C])[sp].[moe](A)[sp].[moe](T)[sp].[moe](A)[sp].[moe](A)p.[moe](T)p.[moe](G)p.[moe]([m5C])p.[moe](T)[sp].[moe](G)[sp].[moe](G)}$$$$ (last 3' nucleoside missing)” it was 0 score 0-7; in that of “RNA1{[moe](A)[sp].[moe](T)[sp].[moe](T)[sp].[moe]([m5C])[sp].[moe](A)[sp].[moe]([m5C])[sp].[moe](T)[sp].[moe](T)[sp].[moe](T)[sp].[moe]([m5C])[sp].[moe](A)[sp].[moe](T)[sp].[moe](A)[sp].[moe](A)[sp].[moe](T)[sp].[moe](G)[sp].[moe]([m5C])[sp].[moe](T)[sp].[moe](G)}$$$$ (last 3' nucleoside missing)”, 4 score 0-7.
In the case of “RNA1{[moe](T)[sp].[moe]([m5C])[sp].[moe](A)[sp].[moe]([m5C])[sp].[moe](T)[sp].[moe](T)[sp].[moe](T)[sp].[moe]([m5C])p.[moe](A)p.[moe](T)[sp].[moe](A)[sp].[moe](A)[sp].[moe](T)[sp].[moe](G)[sp].[moe]([m5C])[sp].[moe](T)[sp].[moe](G)}$$$$ (last 3' nucleoside missing)” it was 4 score 0-7; in that of “RNA1{[moe](A)[sp].[moe]([m5C])[sp].[moe](T)p.[moe](T)[sp].[moe](T)p.[moe]([m5C])[sp].[moe](A)p.[moe](T)[sp].[moe](A)p.[moe](A)[sp].[moe](T)p.[moe](G)[sp].[moe]([m5C])p.[moe](T)[sp].[moe](G)[sp].[moe](G)}$$$$ (last 3' nucleoside missing)”, 0 score 0-7.
Consider “RNA1{[moe](A)[sp].[moe](T)[sp].[moe](T)[sp].[moe]([m5C])[sp].[moe](A)[sp].[moe]([m5C])[sp].[moe](T)[sp].[moe](T)[sp].[moe](T)[sp].[moe]([m5C])p.[moe](A)[sp].[moe](T)[sp].[moe](A)[sp].[moe](A)[sp].[moe](T)[sp].[moe](G)[sp].[moe]([m5C])p.[moe](T)[sp].[moe](G)}$$$$ (last 3' nucleoside missing)”, for which the 3 h FOB score came to 2.75 score 0-7.
For the substance “RNA1{[moe]([m5C])[sp].[moe](A)[sp].[moe]([m5C])[sp].[moe](T)[sp].[moe](T)[sp].[moe](T)[sp].[moe]([m5C])[sp].[moe](A)[sp].[moe](T)[sp].[moe](A)p.[moe](A)p.[moe](T)[sp].[moe](G)[sp].[moe]([m5C])[sp].[moe](T)[sp].[moe](G)[sp].[moe](G)}$$$$ (last 3' nucleoside missing)”, the 3 h FOB score was 1 score 0-7.
Regarding “RNA1{[moe]([m5C])[sp].[moe](T)[sp].[moe](T)[sp].[moe](T)[sp].[moe]([m5C])p.[moe](A)p.[moe](T)p.[moe](A)p.[moe](A)[sp].[moe](T)[sp].[moe](G)[sp].[moe]([m5C])[sp].[moe](T)[sp].[moe](G)[sp].[moe](G)}$$$$ (last 3' nucleoside missing)”, the 3 h FOB score turned out to be 1 score 0-7.
